pEC50, pKi: −log10 of the molar value. Read-outs that look alike come from different tables or passages of the source.
What was measured:
C57Bl/6 mice = test: Incretin secretion assay in C57Bl/6 mice; assay type: in vivo, mouse; conditions: for plasma PYY level: Fig. 3e; for plasma total GLP-1: wild type C57BL/6 mice
Method: Nine week old male C57Bl/6 mice (Envigo, Indianapolis) were used. The night before the incretin assay, mice were transferred to clean cages and fasted overnight. On the morning of the assay, the mice were weighed and randomized by block randomization into groups based on body weight (N = 6) so each group had similar mean and standard deviation of body weight. […] Animals were dosed with vehicle or the test article by oral gavage. Group allocations were not blinded from the experimenters who collected the data. The mice were sacrificed at 0.5, 1, 2, 4, or 8 h post the compound treatment. Blood was taken by cardiac puncture into EDTA tubes containing DPPIV inhibitor and aprotinin cocktail after CO2 euthanization. The final DPPIV inhibitor concentration was 50 µM and aprotinin was 250 K IU/mL. Blood samples were centrifuged at 3000×g for 5 min and plasma transferred into 96 well plates. Plasma total GLP-1 and active GIP levels were measured by ELISA assays that were developed in-house. Data were expressed as mean±s.e.m. […] Cook’s distance was also calculated from linear regression. All animals were included in the analysis with their individual Cook’s distance < 1. Significance is denoted at p < 0.05.

Human GPR120 [1] = molecular target: T1, Human GPR120 (Homo sapiens, UniProt Q5NUL3); test: Human GPR120 b-arrestin; assay type: cell-based; conditions: Supplementary Table 1
T1 sequence (Q5NUL3 1-361): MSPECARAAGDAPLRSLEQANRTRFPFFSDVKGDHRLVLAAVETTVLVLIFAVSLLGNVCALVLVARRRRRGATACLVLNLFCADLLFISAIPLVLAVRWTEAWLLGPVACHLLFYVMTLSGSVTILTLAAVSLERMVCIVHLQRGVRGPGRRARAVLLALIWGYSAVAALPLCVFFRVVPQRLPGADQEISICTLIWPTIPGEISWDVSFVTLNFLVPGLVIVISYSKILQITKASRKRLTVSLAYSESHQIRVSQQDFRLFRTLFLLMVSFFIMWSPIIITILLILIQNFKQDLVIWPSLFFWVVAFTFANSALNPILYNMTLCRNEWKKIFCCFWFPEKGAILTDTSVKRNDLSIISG

GFP = test: cAMP accumulation assay, GFP control
Method: HEK293 cells transiently transfected with Promega’s cAMP response element (CRE/luc2P) and a GPR40 construct were plated (40K cells/well) into 96-well microtiter plates using Dulbecco’s Modified Eagle’s Medium (DMEM) supplemented with 10% FBS, 20 mM HEPES, pH 7.4, 100 U/mL Penicillin, 100 µg/mL Streptomycin, and 800 µg/mL Geneticin. Test compounds were serially diluted three-fold in 100% DMSO and immediately diluted in media. […] EC50 values were calculated using a four-parameter logistic curve fitting equation.

Rat GPR40 = Rat GPR40 (Rattus norvegicus, UniProt Q8K3T4); test: Rat GPR40 b-arrestin; assay type: cell-based
human GPR40 (A2 site) = molecular target: T2, human GPR40 (A2 site) (Homo sapiens, UniProt O14842); test: A2 site radioligand binding with [3H]-AM-1638
T2 construct: full length recombinant human GPR40 (GPR40) cDNA; expressed in transfected cells; host or cells: HEK 293, stably transfected; crude cell surface membranes
Method: Crude cell surface membranes were prepared from human embryonic kidney 293 (HEK 293) cells stably transfected (for the wild type) or transiently transfected (for the mutants and corresponding wild type) with full length recombinant human GPR40 (GPR40) cDNA, using differential centrifugation methods.
A2 Site Binding. 10 µL of compound diluted in 100% DMSO and 90 µL of Assay Buffer (50 mM Tris-HCl, pH 7.5, 10 mM CaCl2, 10 mM MgCl2, 0.1% w/v Bacitracin, 2.5% w/v dextran charcoal-treated FBS) were added to a deep 96-well polypropylene assay plate (Beckman Coulter). Two hundred μl of [^3H]-AM-1638 (84 Ci/mmol, Quotient Bioresearch Radiochemicals, Ltd.; 0.5 nM final concentration) and 200 µL of GPR40 membranes (5 µg/well), both diluted in Assay Buffer, were added to the assay plate, followed by a 1 min shake and a 1 h incubation at room temperature (22 °C).
Assays were terminated by filtration through GF/C glass fiber filtermats (Perkin Elmer) presoaked in 50 mM Tris–HCl, pH 7.5, using a Mach III cell harvester (TomTec). Filtermats were washed two times with 5 mL of ice-cold 50 mM Tris–HCl, pH 7.5 buffer, dried 1 h in a convection oven at 60 °C and embedded with Meltilex A solid scintillant (Perkin Elmer). Radioactivity was determined as counts per min (cpm) using a Trilux Microbeta plate scintillation counter (Perkin Elmer).

wild type C57BL/6 mice = test: Oral glucose tolerance test (OGTT) in wild type C57BL/6 mice; assay type: in vivo, mouse
Method: Eight to thirteen week old male C57BL/6 or KO mice were used. The day before the study, at 1600 hours, animals were transferred into clean cages and food was removed. The following morning (~0800 hours), mice were randomized by block randomization to treatment groups (N = 5–7 per group) so each group had similar mean and standard deviation of body weight and blood glucose. […] Animals were dosed with vehicle (0.5% MC/0.25% Tween-80) or the test article by oral gavage. Group allocations were not blinded from the experimenters who collected the data. After 60 min compound treatment animals were then given an oral gavage of glucose (2 g/kg). At 0, 15, 30, 60, and 120 min post oral glucose, two glucose readings via glucometers were obtained. The average of two glucose readings was reported at each time point. Data were expressed as mean±standard error (s.e.m.). Blood glucose values were analyzed using ANOVA with repeated measures. Cook’s distance was also calculated from linear regression. All animals were included in the analysis with their individual averaged Cook’s distance < 1. Dunnett’s comparison was performed at each time point by R program. Significance is denoted at p < 0.05.

Human GPR120 [2] = molecular target: T1, Human GPR120; test: Human GPR120 Calcium (FLIPR); assay type: cell-based; conditions: Supplementary Table 1
human PPARalpha = molecular target: T3, human PPARalpha (Homo sapiens, UniProt Q07869); test: human PPARalpha binding; conditions: Supplementary Table 1
T3 sequence (Q07869 1-468): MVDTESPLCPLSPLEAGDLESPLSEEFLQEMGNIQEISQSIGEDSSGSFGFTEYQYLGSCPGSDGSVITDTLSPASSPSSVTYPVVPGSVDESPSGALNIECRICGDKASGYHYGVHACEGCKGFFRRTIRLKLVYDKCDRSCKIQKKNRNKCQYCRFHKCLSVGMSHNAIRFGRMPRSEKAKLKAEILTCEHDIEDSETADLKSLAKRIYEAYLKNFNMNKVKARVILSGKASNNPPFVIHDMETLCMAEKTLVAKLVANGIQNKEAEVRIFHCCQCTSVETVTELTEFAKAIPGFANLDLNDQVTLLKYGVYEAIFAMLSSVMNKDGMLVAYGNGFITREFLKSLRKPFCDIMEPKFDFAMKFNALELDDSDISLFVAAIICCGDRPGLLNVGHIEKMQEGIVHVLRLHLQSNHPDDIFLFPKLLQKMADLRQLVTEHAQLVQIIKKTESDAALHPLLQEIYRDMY

GPR40 KO mice = test: Incretin secretion assay in GPR40 KO mice; assay type: in vivo, mouse

T2 sequence (O14842 whole entry): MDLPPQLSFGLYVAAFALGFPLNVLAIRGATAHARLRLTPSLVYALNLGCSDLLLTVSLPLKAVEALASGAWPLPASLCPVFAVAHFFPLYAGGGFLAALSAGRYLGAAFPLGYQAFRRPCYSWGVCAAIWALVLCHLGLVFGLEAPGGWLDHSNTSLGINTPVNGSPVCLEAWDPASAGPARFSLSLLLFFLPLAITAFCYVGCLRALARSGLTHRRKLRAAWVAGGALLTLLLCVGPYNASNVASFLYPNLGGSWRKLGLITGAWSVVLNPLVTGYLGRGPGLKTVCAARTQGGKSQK
Rat GPR40, sequence (Q8K3T4 whole entry): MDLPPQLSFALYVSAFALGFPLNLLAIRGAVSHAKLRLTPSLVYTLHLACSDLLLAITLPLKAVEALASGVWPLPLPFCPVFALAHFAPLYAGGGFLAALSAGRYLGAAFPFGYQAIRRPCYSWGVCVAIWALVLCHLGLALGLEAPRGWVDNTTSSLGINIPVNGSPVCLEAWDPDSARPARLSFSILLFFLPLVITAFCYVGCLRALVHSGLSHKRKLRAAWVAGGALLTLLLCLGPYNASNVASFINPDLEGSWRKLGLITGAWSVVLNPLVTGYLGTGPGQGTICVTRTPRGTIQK

Structure (SMILES)	plasma PYY level (C57Bl/6 mice)	plasma active GIP concentrations (C57Bl/6 mice; oral gavage, up to 8 h)	plasma total GLP-1 concentrations (C57Bl/6 mice; oral gavage, up to 8 h)	plasma total GLP-1 (C57Bl/6 mice; oral treatment at 10 mg/kg, 4-hour window)	pEC50 (Human GPR120 [1])	pEC50 (GFP; Homo sapiens, read-out: cAMP accumulation EC50, GFP)	pEC50 (Rat GPR40)	Emax (Rat GPR40)	pKi (human GPR40 (A2 site); Supplementary Table 1, read-out: Human GPR40 Binding to A2 Ki)	pKi (human GPR40 (A2 site); competitive radioligand binding, membranes from stably transfected cells, Fig. 1a, read-out: Ki in [3H]-AM-1638 binding)	glucose excursion in OGTT (wild type C57BL/6 mice; various oral doses)	pEC50 (Human GPR120 [2])	pKi (human PPARalpha)	plasma active GIP concentrations, GPR40 KO (GPR40 KO mice)	plasma total GLP-1 concentrations, GPR40 KO (GPR40 KO mice)	plasma total GLP-1 (C57Bl/6 mice; oral treatment at 30 mg/kg)	cAMP accumulation EC50, GFP (GFP; GFP control, Fig. 6c,d)	effect on [3H]-AM-1638 binding (human GPR40 (A2 site); addition of unlabeled compound, Supplementary Fig. 1a)	glucose in OGTT (wild type C57BL/6 mice; 30 and 60 mg kg-1)
COc1ccc(C(=O)N(CC(C)(C)C)c2cccc(C)n2)c(N2CCC(c3cc4ccc([C@@H](CC(=O)O)C5CC5)cc4o3)CC2)c1 [compound 1]	no effect on plasma PYY level	significantly increases plasma active GIP concentrations up to 8 h	significantly increases plasma total GLP-1 concentrations up to 8 h	sustains an elevated level of plasma total GLP-1	< 4.00	< 4.52	8.68	163%	9.05	9.09	Dose dependent decreases in glucose excursion	< 4.30	< 5.00	no effect	no effect	–	–	–	–
Cc1cc(OCCCS(C)(=O)=O)cc(C)c1-c1cccc(COc2ccc3c(c2)OC[C@H]3CC(=O)O)c1 [TAK-875]	no effect on plasma PYY level	–	–	–	< 4.00	–	7.44	–	–	–	–	< 4.30	< 5.00	–	–	no effect on plasma total GLP-1	no fit	enhanced	Decreases in glucose

From PMC5917010, “Structural basis for GPR40 allosteric agonism and incretin stimulation” (Nature Communications, 2018)
